# From ChEMBL document CHEMBL1932965, “Synthesis and SAR of inhibitors of protein kinase CK2: novel tricyclic quinoline analogs” (Bioorg Med Chem Lett, 2012)
# Biological target: Casein kinase II alpha/beta (Homo sapiens, UniProt P68400)
# Test: Inhibition of human recombinant CK2alpha/CK2beta using RRRDDDSDDD peptide as substrate by radiometric assay
# Type: protein-complex assay
# Chain of Casein kinase II alpha/beta (P68400 whole entry, looked up): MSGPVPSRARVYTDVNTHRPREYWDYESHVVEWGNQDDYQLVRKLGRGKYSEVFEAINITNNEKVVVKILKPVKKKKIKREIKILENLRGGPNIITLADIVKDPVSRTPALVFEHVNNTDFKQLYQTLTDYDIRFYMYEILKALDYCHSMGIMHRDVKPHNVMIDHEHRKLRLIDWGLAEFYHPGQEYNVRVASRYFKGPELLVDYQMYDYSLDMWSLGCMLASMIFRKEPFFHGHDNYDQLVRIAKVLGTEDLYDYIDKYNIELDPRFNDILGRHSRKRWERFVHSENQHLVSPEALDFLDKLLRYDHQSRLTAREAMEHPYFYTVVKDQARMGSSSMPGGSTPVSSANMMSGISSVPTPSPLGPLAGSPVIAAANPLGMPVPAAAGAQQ
row,Structure (SMILES),IC50 [nM]
1,O=C(O)c1ccc2c(c1)nc(-c1ccc(Cl)s1)c1ccncc12,0.4
2,O=C(O)c1ccc2c(c1)nc(-c1ccc(Cl)cc1)c1ccncc12,0.5
3,O=C(O)c1ccc2c(c1)nc(-c1ccccc1)c1ccncc12,1.1
4,COC(=O)c1ccc2c(c1)nc(-c1ccc(Cl)cc1)c1ccncc12,395
5,Cc1ccccc1-c1nc2cc(C(=O)O)ccc2c2cnccc12,20
6,Clc1ccc(-c2nc3cc(-c4nnn[nH]4)ccc3c3cnccc23)cc1,20
7,Nc1cccc(-c2nc3cc(C(=O)O)ccc3c3cnccc23)c1,2.7
8,O=C(O)c1ccc2c(c1)nc(-c1ccsc1)c1ccncc12,0.5
9,O=C(O)c1ccc2c(c1)nc(-c1ccc(Cl)cc1)c1ncncc12,12
10,O=C(O)c1ccc2c(c1)nc(-c1cccc(OC(F)(F)F)c1)c1ccncc12,5.7
11,CCNc1ncc2c(n1)c(-c1ccc(Cl)cc1)nc1cc(C(=O)O)ccc12,0.5
12,COc1cccc(-c2nc3cc(C(=O)O)ccc3c3cnccc23)c1,34
13,O=C(O)c1ccc2c(c1)nc(Oc1cccc(Cl)c1)c1ccncc12,3.7
14,O=C(O)c1ccc2c(c1)nc(-c1ccccc1)c1nc(NC3CC3)ncc12,0.6
15,O=C(O)c1ccc2c(c1)nc(-c1ccc(F)cc1)c1ccncc12,1.2
16,NC(=O)c1cccc(-c2nc3cc(C(=O)O)ccc3c3cnccc23)c1,3.5
17,NC(=O)c1ccc2c(c1)nc(-c1ccc(Cl)cc1)c1ccncc12,30
18,CONC(=O)c1ccc2c(c1)nc(-c1ccc(Cl)cc1)c1ccncc12,444

row,Structure (SMILES),IC50 [nM]
1,O=C(O)c1ccc2c(c1)nc(-c1ccccc1F)c1ccncc12,15
2,O=C(O)c1ccc2c(c1)nc(-c1cccc(F)c1)c1ccncc12,1.3
3,O=C(O)c1ccc2c(c1)nc(-c1cccc(O)c1)c1ncncc12,3.5
4,N#Cc1ccc2c(c1)nc(-c1ccc(Cl)cc1)c1ccncc12,> 2500
5,O=C(O)c1ccc2c(c1)nc(-c1cccnc1)c1ccncc12,> 2500
6,CN(c1cccc(Cl)c1)c1nc2cc(C(=O)O)ccc2c2cnccc12,8.9
7,O=C(O)c1ccc2c(c1)nc(-c1ccncc1)c1ccncc12,35
8,O=C(O)c1ccc2c(c1)nc(-c1ccccc1OC(F)(F)F)c1ccncc12,39
9,O=C(O)c1ccc2c(c1)nc(-c1cccc(O)c1)c1ccncc12,1
10,O=C(O)c1ccc2c(c1)nc(Sc1cccc(Cl)c1)c1ccncc12,1
11,Cc1cscc1-c1nc2cc(C(=O)O)ccc2c2cnccc12,4.2
12,CS(=O)(=O)c1cccc(-c2nc3cc(C(=O)O)ccc3c3cnccc23)c1,13
13,O=C(O)c1ccc2c(c1)nc(-c1cccc(Cl)c1)c1ccncc12,2.9
14,O=C(O)c1cccc2c1nc(-c1ccc(Cl)cc1)c1ccncc12,2030
15,NC(=O)c1cccc(-c2nc3cc(C(=O)O)ccc3c3cncnc23)c1,17
16,O=C(O)c1ccc2nc(-c3ccc(Cl)cc3)c3ccncc3c2c1,164
17,NS(=O)(=O)c1cccc(-c2nc3cc(C(=O)O)ccc3c3cnccc23)c1,11
18,O=C(O)c1ccc2c(c1)nc(Cc1cccc(Cl)c1)c1ccncc12,2.1
